Experimental data published in patent US20250003959A1, “CELL ANALYSIS METHODS, COMPOSITIONS, AND USES” (Institute for Systems Biology, priority 2021, published 2025).

How the values were obtained:
U87VIII cells [1] = assay: FA-N3 uptake experiment at the bulk level, dendrimer/BHQ2-N3 surface detection; format: cell-based, human
Procedure: The 3rd or 4th generation dendrimer was immobilized on the glass slide surface (described above). To generate a working curve of FA-N3, 45 μL of FA-N3 (various concentrations in 1×PBST) was added to each well. The slide was incubated at 37° C. for 2 hours, allowing FA-N3 to react with the DBCO groups on the dendrimer. The FA-N3 solution was then removed, and each well was washed with 1×PBST three times. 45 μL of BHQ2-N3 solution (25 μM in 1×PBST) was added to each well, and the slide/PDMS device was incubated at 37° C. for 1 hour, allowing BHQ2-N3 to react with unoccupied DBCO sites. After removing the BHQ2-N3 solution, and the device was washed with 1×PBST three times. The PDMS slab was then removed, and the slide was washed with 1×PBS, 50% 1×PBS/water, and water. The slide was then air-dried, and the fluorescence intensities were obtained using a Genepix microarray scanner. Experiments were run in quadruplets to get the error bar.
The U87 cells were collected via centrifugation at 500 g for 5 min. The media was removed, and the cells were resuspended in FBS-free DMEM, resulting in a 4 M cells/mL suspension. 250 μL of the cell suspension was dispensed into Eppendorf tubes, and mixed with 250 μL of the FA-N3 solution (various concentrations, in FBS free DMEM). After 30 min incubation in the cell incubator, the cells were centrifuged at 500 g for 5 min and the resulting pellet was washed 3 times to remove any excess FA-N3. Then, 100 μL cell lysis buffer was added to each tube, and kept on ice for 15 min. The tubes were then sonicated and vortexed for 5 min. Finally, the tubes were centrifuged at maximum speed for 10 min. The supernatant was collected and subjected to surface-based FA-N3 detection.
Because of their hydrophobic tails, fatty acids may insert into the cell membrane. This partition is not an active transportation process and may confound the analysis. On the other hand, it was expected that the inserted probe molecules would remain in the membrane fragments upon cell lysis and not be detected by the assay. To assess this potential interference, we incubated the cells with the FA-N3 probe at 4° C. and used our platform to quantify the FA-N3 in the cells. At such a low temperature, the cells would stop the active transportation of the probe, and any observed signal would originate from the nonspecific insertion into the cell membrane. […] To rule out the possibility that the low-temperature treatment dampened the rate of the nonspecific insertion, we performed another experiment where we fixed the cells and then incubated them with the FA-N3 probe at 37° C. Again, the resulted signal was negligible (FIG. 3G).

U87VIII cells [2] = assay: FA-N3 tolerance experiment (resazurin viability); details: FIG. 3E
Procedure: (§1) A 96-well plate was seeded with U87 cells (10,000/well), and the cells were allowed to grow overnight. Then the FA-N3 solution was added (100 μL per well, various concentrations) to the cells and incubated for 24 hours. After the incubation, the cell media was removed, and a resazurin solution (10 g/mL, in cell media) was added to the plate and incubated for 2 hours. The fluorescence was read by a plate reader (Biotek, 540 nm excitation/590 nm emission).

U87VIII cells [3] = test system: U87VIII cells
Procedure: as §1

U87VIII single cells = assay: Single-cell barcode chip (SCBC) FA-N3 uptake measurement; format: cell-based, human
Procedure: For SCBC measurements, the as-prepared single cells were resuspended in warm FBS-free media supplemented with 10 mM FA-N3 at 2 M cells/mL. After being incubated at 37° C. for 30 min and washed with FBS-free media 3 times, the collected cell pellet was resuspended in serum-free, biotin-free media. The concentration of the as-prepared single-cell suspension was 2 M cells/mL.
The SCBCs were fabricated according to well-established procedures (Xue et al (2015) J Am Chem Soc 137 (12): 4066-4069). DNA-encoded antibody library (DEAL) was grafted onto the surface through DNA hybridization to enable capture antibody arrays. The FA surface probe was also incorporated onto the surface barcode through the same procedure.
The SCBC devices were operated following previously established protocols (Xue et al (2015) J Am Chem Soc 137 (12): 4066-4069)). Briefly, FA-N3 detection was achieved by a surface-based competitive FRET assay, and protein detection was carried out by a sandwich immunofluorescence assay. The cells were loaded in the SCBC with FA-N3 first. Then each cell was isolated and lysed on each chamber. Upon cell lysing, FA-N3 and other analytes were released from the cell and captured on the surface. Subsequently, the detection cocktail containing BHQ2-N3 and antibodies were added to the chamber, and the fluorescence readout was recorded.
The dendrimer-ssDNA conjugate can be mixed with a cocktail of antibody-ssDNA conjugates to enable multiplex quantitation. As a proof of concept, we quantified the azidopentanoic acid uptake, critical signaling protein levels, and cell proliferation marker (Ki67) in U87VIII single cells. […] We further investigated if the FA-N3 uptake was dictated by the cell volume.

For azidopentanoic acid [FA-N3], which “uptake signal after incubation at 4° C.” value (U87VIII cells [1]; U87VIII cells incubated with the probe at 4° C., vs control) is on record?
Its value is “indistinguishable from the control”.

And the “FA-N3 concentration above which uptake signal leveled off” value (U87VIII cells [1]; U87VIII cells, bulk level)?
The value was “above 10 mM”.

What about the “cellular uptake of FA-N3 probe” value (U87VIII cells [1]; U87VIII cells, bulk level, 30 min incubation, varying FA-N3 concentrations) of the same substance?
Its value is “concentration-dependent manner”.

And the “uptake signal in fixed cells” value (U87VIII cells [1]; fixed U87VIII cells incubated with the probe at 37° C.)?
The value was “negligible”.

And the “concentration well tolerated by cells” value (U87VIII cells [2])?
The value was “up to 20 mM”.

What about the “tolerance of the probe by the cells” value (U87VIII cells [3]) of the same substance?
The value was “well-tolerated”.

And the “intracellular FA-N3 concentration” value (U87VIII single cells)?
The value was “high μM to low mM”.

What about the “fatty acid concentrations in the chambers” value (U87VIII single cells; calculated from the standard curve) of the same substance?
The value was “high nM to low μM”.

And the “FA-N3 amount taken up by each cell” value (U87VIII single cells; chamber volume 2 nL)?
The value was “low fmol-level”.
